Results taken from patent US20230390292A1, “REGIMENS FOR THE TREATMENT OF HAIR LOSS DISORDERS WITH DEUTERATED JAK INHIBITORS” (Sun Pharmaceutical Industries, Inc., priority 2020, published 2023).

Key:
Assay type in all cases: in vivo, human
[1] = test system: subjects with alopecia areata; assay: Open-label extension study (OLE), SALT score after dose reduction
Protocol: In an ongoing open-label extension study, subjects who were previously enrolled in a qualifying clinical study (including the study described in Example 1) and received either a total daily dose of 16 mg of Compound (I) (CTP-543, phosphate salt), a total daily dose of 24 mg of CTP-543, or placebo, and completed through the 24-week treatment period, were eligible to enroll in an open-label extension study (OLE) and continue to receive treatment with CTP-543 phosphate. A total of 152 subjects were enrolled in the OLE. In the OLE, subjects received daily treatment with CTP-543 at a dose of 8 mg BID or 12 mg BID (see FIG. 8). Dose adjustments were allowed at the investigator's discretion. One subject enrolled in the OLE, who received a daily dose of 24 mg QD of CTP-543 for approximately 9 months (i.e., the 24-week study period and the initial 3 months of the OLE), experienced hair growth at that dose (SALT score of zero, i.e., full regrowth of hair prior to dose reduction). The subject then had their dose reduced to a daily dose of 8 mg BID of CTP-543 phosphate. After approximately 7 months in the OLE receiving the lower daily dose of 8 mg BID of CTP-543, the subject continued to substantially maintain hair regrowth, with a SALT score of 7.92.

[2] = test system: adult patients with moderate-to-severe alopecia areata; assay: Phase 2a trial, safety (treatment emergent adverse events)
Protocol: (§1) A Phase 2a trial was conducted to evaluate the safety and efficacy of Compound (I) (CTP-543) in subjects with alopecia, with the primary efficacy analysis at week 24. The Phase 2a trial was a double-blind, randomized, placebo-controlled trial to evaluate the safety and efficacy of Compound (I) in adult patients with moderate-to-severe alopecia areata. Patients were sequentially randomized to receive one of three doses of Compound I as the phosphate salt (e.g., 10.5 mg of Compound (I) phosphate salt is equivalent to 8 mg of Compound (I) free base). The doses of Compound (I) were 4, 8 (i.e., about 10.5 mg of Compound (I) phosphate salt), and 12 mg twice daily, and there was also a patient group receiving placebo. The primary outcome measure utilized the severity of alopecia tool (SALT) after 24 weeks of dosing.
In the preliminary analysis of the placebo, 4 mg, and 8 mg groups, there were only 3 Grade 3/4 hematology events, distributed equally across the placebo, 4 mg, and 8 mg groups.

[3] = test system: adult patients with moderate-to-severe alopecia areata; assay: Phase 2a trial, efficacy by severity of alopecia tool (SALT)
Text: The efficacy of treatment of hair loss disorders such as alopecia areata can be measured in a variety of ways, some of which are known in the art. For example, the “severity of alopecia tool”, otherwise known as SALT, is a validated assessment scale developed by the National Alopecia Areata Foundation working committee—to evaluate the degree of hair loss. See, e.g., Olsen E A, Hordinsky M K, Price V H, et al. Alopecia areata investigational assessment guidelines—Part II. J Am Acad Dermatol 2004: 51: 440-447 (incorporated herein by reference). The SALT score is calculated for a patient by measuring the percentage of hair loss in each of the 4 areas of the scalp and adding the total to achieve a composite score. Hair regrowth is reflected by a decrease in the SALT score. For example, no hair on the scalp would have a SALT score of 100 while complete hair regrowth would be a SALT score of 0. In certain embodiments, methods of treatment as described herein can provide a SALT score improvement of at least 10 points after treatment (for example, from a SALT score of 100 prior to treatment to a SALT score of 90 after treatment). In further embodiments, methods of treatment as described herein can provide a SALT score improvement of at least 20 points, 30 points, 40 points, 50 points, 60 points, 70 points, 80 points, 90 points, or 100 points. In certain embodiments, methods of treatment as described herein can provide after treatment at least a 20% improvement from baseline in the patient's SALT score, or at least a 30% improvement from baseline in the patient's SALT score, or at least a 40% improvement from baseline in the patient's SALT score, or at least a 50% improvement from baseline in the patient's SALT score, or at least a 60% improvement from baseline in the patient's SALT score, or at least a 70% improvement from baseline in the patient's SALT score, or at least a 75% improvement from baseline in the patient's SALT score or at least a 80% improvement from baseline in the patient's SALT score, or at least a 90% improvement from baseline in the patient's SALT score.
as §1
Interim top line analysis for the 4 mg, 8 mg, and 12 mg cohorts is discussed below. The primary endpoint for the study was a 50% relative reduction in SALT between Week 24 and baseline.
58% of patients treated with 12 mg BID (twice daily) and 47% of patients treated with 8 mg BID (twice daily) of CTP-543 achieved a ≥50% reduction in their overall SALT score compared to 8.6% placebo (p<0.001). In addition, 42% of patients treated with 12 mg BID (p<0.001) and 29% of patients treated with 8 mg BID (p<0.05) of CTP-543 achieved a ≥75% reduction in their overall SALT score compared to 7% placebo. Further, 36% of patients treated with 12 mg BID (p<0.001) and 16% of patients treated with 8 mg BID (p<0.05) of CTP-543 achieved a ≥90% reduction in their overall SALT score compared to 2% placebo. 21% of patients treated with 4 mg BID of CTP-543 achieved a ≥50% reduction in their overall SALT score compared to 8.6% placebo (not significant). […] Significant changes in SALT score were observed starting at 12 weeks for the 12 mg and 8 mg cohorts compared to placebo (p<0.05).

[2H]C1([2H])C([C@@H](CC#N)n2cc(-c3ncnc4[nH]ccc34)cn2)C([2H])([2H])C([2H])([2H])C1([2H])[2H] [CTP-543, (R)-3-(4-(7H-pyrrolo[2,3-d]pyrimidin-4-yl)-1H-pyrazol-1-yl)-3-(cyclopentyl-2,2,3,3,4,4,5,5-d8)propanenitrile]
SALT score prior to dose reduction ([1]; one subject, 24 mg QD for approximately 9 months): zero | SALT score after dose reduction ([1]; same subject, approximately 7 months at 8 mg BID after 24 mg QD): 7.92 | Acne, patients (%) ([2]; 4 mg twice daily): 4 (13.8%) | Blood creatine phosphokinase increased, patients (%) ([2]; 4 mg twice daily): 3 (10.3%) | Cough, patients (%) ([2]; 4 mg twice daily): 4 (13.8%) | Diarrhoea, patients (%) ([2]; 4 mg twice daily): 3 (10.3%) | Folliculitis, patients (%) ([2]; 4 mg twice daily): 3 (10.3%) | Headache, patients (%) ([2]; 4 mg twice daily): 5 (17.2%) | LDL increase, patients (%) ([2]; 4 mg twice daily): 0 | Nasopharyngitis, patients (%) ([2]; 4 mg twice daily): 3 (10.3%) | Nausea, patients (%) ([2]; 4 mg twice daily): 4 (13.8%) | Oroharyngeal pain, patients (%) ([2]; 4 mg twice daily): 3 (10.3%) | Upper respiratory tract infection, patients (%) ([2]; 4 mg twice daily): 2 (6.9%) | Acne, patients (%) ([2]; 8 mg twice daily): 4 (10.5%) | Blood creatine phosphokinase increased, patients (%) ([2]; 8 mg twice daily): 2 (5.3%) | Cough, patients (%) ([2]; 8 mg twice daily): 1 (2.6%) | Diarrhoea, patients (%) ([2]; 8 mg twice daily): 1 (2.6%) | Folliculitis, patients (%) ([2]; 8 mg twice daily): 2 (5.3%) | Headache, patients (%) ([2]; 8 mg twice daily): 10 (26.3%) | LDL increase, patients (%) ([2]; 8 mg twice daily): 4 (10.5%) | Nasopharyngitis, patients (%) ([2]; 8 mg twice daily): 3 (7.9%) | Nausea, patients (%) ([2]; 8 mg twice daily): 4 (10.5%) | Oroharyngeal pain, patients (%) ([2]; 8 mg twice daily): 2 (5.3%) | Upper respiratory tract infection, patients (%) ([2]; 8 mg twice daily): 2 (5.3%) | Acne, patients (%) ([2]; 12 mg twice daily): 6 (16.7%) | Blood creatine phosphokinase increased, patients (%) ([2]; 12 mg twice daily): 1 (2.8%) | Cough, patients (%) ([2]; 12 mg twice daily): 2 (5.6%) | Diarrhoea, patients (%) ([2]; 12 mg twice daily): 0 | Folliculitis, patients (%) ([2]; 12 mg twice daily): 1 (2.8%) | Headache, patients (%) ([2]; 12 mg twice daily): 7 (19.4%) | LDL increase, patients (%) ([2]; 12 mg twice daily): 0 | Nasopharyngitis, patients (%) ([2]; 12 mg twice daily): 9 (25.0%) | Nausea, patients (%) ([2]; 12 mg twice daily): 1 (2.8%) | Oroharyngeal pain, patients (%) ([2]; 12 mg twice daily): 1 (2.8%) | Upper respiratory tract infection, patients (%) ([2]; 12 mg twice daily): 7 (19.4%) | serious adverse events ([2]; 4, 8, 12 mg BID, 24 weeks): no serious adverse events | tolerability of treatment ([2]; 4, 8, 12 mg BID, 24 weeks): generally well-tolerated | Grade 3/4 hematology events ([2]; preliminary analysis, total, distributed equally across placebo, 4 mg and 8 mg groups): 3 | separation from placebo ([3]; 4 mg BID, all measures): failed to separate from placebo on all measures | patients achieving a ≥50% reduction in overall SALT score ([3]; 4 mg BID, week 24, vs 8.6% placebo (not significant)): 21% | difference from placebo on SALT measures ([3]; 8 mg BID and 12 mg BID, week 24): significantly different from placebo on all SALT measures | patients achieving a ≥90% reduction in overall SALT score ([3]; 8 mg BID, vs 2% placebo (p<0.05)): 16% | patients achieving a ≥75% reduction in overall SALT score ([3]; 8 mg BID, vs 7% placebo (p<0.05)): 29% | patients achieving a ≥50% reduction in overall SALT score ([3]; 8 mg BID, week 24, vs 8.6% placebo (p<0.001)): 47% | effect of 12 mg BID compared to 8 mg BID ([3]; 12 mg BID vs 8 mg BID): numerically superior and generally produced faster onset and greater effect | patients achieving a ≥90% reduction in overall SALT score ([3]; 12 mg BID, vs 2% placebo (p<0.001)): 36% | patients achieving a ≥75% reduction in overall SALT score ([3]; 12 mg BID, vs 7% placebo (p<0.001)): 42% | patients achieving a ≥50% reduction in overall SALT score ([3]; 12 mg BID, week 24, vs 8.6% placebo (p<0.001)): 58% | start of significant changes in SALT score compared to placebo ([3]; 12 mg and 8 mg cohorts, p<0.05): 12 weeks | difference of 12 mg BID and 8 mg BID dose groups from 4 mg BID dose group ([3]; p<0.05): significantly different
